Entries after “also recorded” stand apart in the source; their conditions may differ.
Tests used:
[1] = test system: murine donor hearts; test: Hemodynamics (max dp/dt, min dp/dt) of murine donor hearts after cold storage and ex-vivo reperfusion
[2] = test system: murine donor hearts; test: as above; remark: listed apart in the source
Procedure: FIG. 5A-C. […] The max dp/dt (A) and min dp/dt (B) were calculated by averaging the max/min dp/dt in 20 minutes stable period after different cold storage periods followed by perfusion. The max dp/dt or −min dp/dt of hearts were normalized to percentage of time 0. **p<0.01. (C) VPA suppress the Ill and Myd88 protein level induced by cold storage.
FIG. 9A-C. […] Following spironolactone treatment, much improved (A) max dp/dt and (B) min dp/dt after prolonged storage after 8 hours and 12 hours was observed compared to HTK alone. N=4. **p<0.01, ***p<0.001 (C) Spironolactone suppress the Il1 and Myd88 protein level induced by cold storage.
(§1) Experiments were conducted during development of embodiments herein to examine the effect of VPA on donor heart function with prolonged cold storage of donor heart. To address this, murine donor hearts were perfused with 7-8 mL HTK solution alone or HTK with 20 mM VPA and then stored the heart for 0, 4, and 8 hours.
Murine donor hearts were isolated and preserved in HTK solution for 0 h, 4 h and 8 h. The cardiac hemodynamics were then examined in an ex-vivo perfusion system. […] This was accompanied by increasing apoptotic cell death by TUNEL staining (FIG. 6C). Occurrence of cell death processes such as apoptosis with increasing storage duration is corroborated by Increased expression of cleaved poly (ADP-ribose) polymerase (PARP), a marker of cell death (FIG. 6D).
(§2) Experiments were conducted during development of embodiments herein to determine whether pharmacological inhibition of MR signaling improves the heart function after prolonged cold storage period. To address this, murine donor hearts were perfused with 7-8 mL HTK solution alone or HTK with 25 μM spironolactone and then stored the heart for 0, 8 and 12 hours.

[3] = test system: Il1; test: Il1 protein level in donor heart after cold storage (western blot); design: species or system murine
Procedure: as §1, §2

[4] = test system: Myd88; test: Myd88 protein level in donor heart after cold storage (western blot); design: species or system murine
Procedure: as §1, §2

[5] = test system: pig hearts; test: Ex-vivo isolated pig heart perfusion after 6 hours of ice storage in HTK with or without VPA; details: 6 grams VPA in 2 liters HTK, 6 hours on ice
Procedure: FIG. 1. Coronary vascular resistance after two hours of ex-vivo pig heart perfusion. […] 6 grams of VPA was dissolved in 2 liters of heart preservation solution (histidine-tryptophan-ketoglutarate solution, HTK) and then infused this through the aortic root of freshly sacrificed pig hearts (n=3). For the control group (n=3) only HTK solution was infused. HTK solution is one of the standard donor heart preservation solutions used clinically for heart transplantation. The pig heart was then stored in ice after mechanical arrest with HTK solution as per standard transplant protocol for a total of 6 hours. After 6 hours, the hearts were retrieved and perfused with pig blood in an ex-vivo isolated heart perfusion model. The hearts were then examined for cardiac performance.

[6] = test system: human donor hearts; test: RNA-Seq gene set enrichment analysis of human donor hearts during cold (4° C.) storage
Procedure: For treatment of human donor hearts, 6 grams of VPA was dissolved in 2 liters of HTK preservation solution and also used 2 liters of HTK solution as control. The solutions were then infused this through the aortic root of human donor hearts (n=3). RNA-Seq was performed to study the transcriptomic effect of VPA on the human heart during cold (4° C.) storage. Total RNA was isolated from the heart tissue stored at 0 h, 4 h and 8 h time points. Gene set enrichment analysis was then performed at different time points with or without VPA treatment.

[7] = test system: donor hearts from C57BL/6J mice; test: Reanimation of murine donor hearts on ex-vivo Langendorff apparatus after cold storage; details: up to 5 hours of cold storage, vs HTK solution
Procedure: From murine heart experiments, donor hearts from C57BL/6J mice were preserved with either HTK solution or VPA+HTK solution and then stored in ice as per clinical protocols. The cold storage time was varied from 0 hour to 9 hours before reperfusing on an ex-vivo Langendorff apparatus.

[8] = Alda-1 vs HTK alone, after 8 h of cold storage
[9] = canrenone vs HTK alone, after 8 hours of preservation
[10] = canrenone vs HTK alone, prolonged storage after 4 hours and 8 hours
[11] = HTK with 25 μM spironolactone vs HTK alone, after 8 h and 12 h of cold storage
[12] = HTK with 25 μM spironolactone vs HTK alone, after 8 h and 12 h of cold storage, listed as spironolactone
[13] = spironolactone, western blot, listed as spironolactone
[14] = HTK with 20 mM VPA vs HTK alone, after 4 h and 8 h of cold storage

## O=C(NCc1ccc2c(c1)OCO2)c1c(Cl)cccc1Cl [Alda-1, N-(1,3-benzodioxo1-5-ylmethyl)-2,6-dichlorobenzamide]
[1]; [8]
  max dp/dt (donor heart contractility): dramatically improves; also recorded: improved
  min dp/dt (donor heart relaxation): dramatically improves; also recorded: improved

## C[C@]12CCC(=O)C=C1C=C[C@@H]1[C@@H]2CC[C@@]2(C)[C@H]1CC[C@@]21CCC(=O)O1 [Canrenone, canrenone]
[1]; [9]
  max dp/dt (donor heart contraction): significantly improves
  min dp/dt (donor heart relaxation): significantly improves
[1]; [10]
  max dp/dt: much improved
  min dp/dt: much improved

## CC(=O)S[C@@H]1CC2=CC(=O)CC[C@]2(C)[C@H]2CC[C@@]3(C)[C@@H](CC[C@@]34CCC(=O)O4)[C@H]12 [Spironolactone, spironolactone]
[2]; [11]
  max dp/dt (donor heart contractility): much improved
  min dp/dt (donor heart relaxation): much improved
[2]; [12]
  max dp/dt (donor heart contractility): dramatically improved
  min dp/dt (donor heart relaxation): dramatically improved
[3]; spironolactone, western blot
  Il1 protein level: suppress
[3]; [13]
  Il1 protein level: significantly reduced
[4]; spironolactone, western blot
  Myd88 protein level: suppress
[4]; [13]
  Myd88 protein level: significantly reduced

## CCCC(CCC)C(=O)O [VPA, Valproic acid]
[5]; pig hearts (n=3), control 2 out of 3
  fibrillatory arrest during ex-vivo perfusion: None
[5]; pig hearts, after two hours of ex-vivo perfusion, vs HTK control
  Coronary vascular resistance / coronary vascular tone: improved; also recorded: trend toward better maintenance
[2]; [14]
  max dp/dt (donor heart contractility): improves donor heart function; also recorded: dramatically improved
  min dp/dt (donor heart relaxation): improves donor heart function; also recorded: dramatically improved
[6]; LV, VPA vs HTK Only
  NES, Inflammatory response: −1.47
  NES, Interferon gamma response: −1.65
  NES, TNFa signaling via NFkB: −1.68
[6]; LV, during cold storage
  accumulation of genes related to inflammatory response: significantly reduced
[6]; RV, VPA vs HTK Only
  NES, Inflammatory response: −1.32
  NES, P53 pathway: −1.25
  NES, TNFa signaling via NFkB: −1.96
[6]; RV, during cold storage
  activation of p53 proapoptotic pathway: reduced the activation
  expression of inflammatory response genes: reduced expression
[3]; HTK with 20 mM VPA
  Il1 protein level: suppress; also recorded: reduced protein level
[4]; HTK with 20 mM VPA
  Myd88 protein level: suppress; also recorded: reduced protein level
[7]
  cardiac reanimation: successful and comparable for both groups
